Measured values from patent US20260259229A1, “FATIGUE SYNDROME SIGNATURES AND METHODS OF TREATMENT” (The Board of Trustees of the Leland Stanford Junior …, priority 2023, published 2026).
Entries after “also recorded” stand apart in the source; their conditions may differ.

Columns and labels:
CD4 T cells = assay: Screening for reversal of oxidative damage: PBMCs treated with ROS inducer, then candidate drug; lipid peroxidation by flow cytometry (FIG. 9B, 9F); type: cell-based, human; conditions: drug after ROS inducer, versus positive control cells treated only with ROS inducer (FIG. 9F)
Procedure: FIGS. 9A-9F. Screening assays. (A) To identify drugs that can protect immune cell populations from oxidative stress, PBMCs are treated with candidate drugs (e.g., liproxstatin-1, metformin) for an hour, before treatment with ROS inducer (e.g., cumene […], tert-butyl hydroperoxide). By subsequently labeling cells with metabolic dyes to track oxidative stress parameters, comparisons with immune cells only treated with ROS inducer enable quantification of drugs capacity to protect against oxidative stress and damage in immune cell populations. (B) To identify drugs that can reverse oxidative stress and damage in immune cell populations, PBMCs are treated first with a ROS inducer for 30 minutes to an hour, before subsequent treatment with candidate drugs. By labeling with metabolic dyes and comparing the drug treated immune cell populations to those treated only with ROS inducer, we can quantify the capacity for drugs to reverse oxidative stress and damage in PBMCs. (C) To link these metabolic changes with immune cell function, control and disease PBMCs (e.g., from fatigue-syndrome patients) are labeled with proliferation dyes, upon which T cells are stimulated with anti-CD3/anti-CD28 antibodies and IL-2. By treating PBMCs with drugs identified from methodologies described in 9A and 9B, we can assess how metabolic changes to oxidative stress levels in drugs also modulate functional capacity of donor T cells to proliferate. While flowchart is specific to T cells (e.g., anti-CD3/anti-CD28 stimulation), the core methodology is applicable to other immune cell populations, where changes in immune cells capacity to proliferate can be assessed upon treatment with candidate drugs. (D) Application of methodology to a specific CFS patient is shown, where PBMCs treated with ROS-modulating drugs including N-acetylcysteine, metformin, and liproxstatin-1. Flow cytometry data is shown for CD4 T cells, where the x-axis corresponds to CellTraceViolet (proliferation dye) staining and the y-axis corresponds to total ROS levels. […] (E) Proportion of proliferating T cells are shown for a specific CFS patient (patient 27) along with their […] and […]. […] Lipid peroxidation changes are shown, where higher oxidative damage corresponds to a lower value on the y-axis. Identified drugs include N-acetylcysteine (NAC), metformin, liproxstatin-1, nicotinamide mononucleotide (NMN), oxaloacetate, MitoQ, Abilify, Colchicine, Naltrexone. Although this methodology is shown for CD4 T cells, it is broadly applicable to other immune cell populations (e.g., myeloid cells).
Staining: To stain for mitochondrial parameters, cells were stained with BioTracker ATP-Red Live Cell Dye (Sigma Aldrich), MitoTracker Deep Red FM (ThermoFisher), MitoSpy Green FM (BioLegend). To stain for ROS levels, cells were stained with DCFDA cellular ROS assay kit (abcam), MitoSOX Red Mitochondrial Superoxide detector (ThermoFisher). To stain for glutathione clearance and oxidative damage, cells were stained with ThiolTracker Violet (ThermoFisher), HCS LipidTOX Green Neutral Lipid Stain (ThermoFisher) for lipid droplet levels, and Image-iT™ Lipid Peroxidation Kit, ratiometric lipid peroxidation sensor (ThermoFisher). To capture viability, cells were stained with LIVE/DEAD Fixable Far Red Dead Cell Stain (ThermoFisher).

[1] = tested on: CD4 and CD8 T cells (donor PBMCs); assay: T cell proliferation assay: CellTrace Violet dye dilution, PBMCs stimulated with anti-CD3/anti-CD28 antibodies and IL-2, treated with ROS-modulating drugs; type: cell-based, human; conditions: for proportion of proliferating T cells, HC and ME-CFS PBMCs (FIG. 15): 100 μM N-acetylcysteine, liproxstatin-1, 5-days post activation; for effect in reducing T cell hyperproliferation in ME/CFS donors: female ME/CFS donors, p: NAC CD4 0.82, CD8 0.7, metformin CD4 0.041, CD8 0.39, liproxstatin-1 CD4 0.31, CD8 0.18; for reduction in T cell proliferation upon treatment, male ME/CFS: male ME/CFS PBMCs (FIG. 17: 100 μM N-acetylcysteine, 10 μM metformin, 1 μM liproxstatin-1); for proportion of proliferating CD4 T cells upon stimulation: patient 27 (ME/CFS) PBMCs treated at day 0, read 5 days after stimulation, untreated 79.3%; for effect in lowering T cell proliferation in LC female donors: female LC PBMCs (FIG. 16)
patients = conditions: double-blinded phase III studies on >1300 patients, especially among female patients; cited from earlier work

COC1=C(OC)C(=O)C(CCCCCCCCCC[P+](c2ccccc2)(c2ccccc2)c2ccccc2)=C(C)C1=O [MitoQ]
capacity for reversing oxidative damage (lipid peroxidation changes) (CD4 T cells): reversing oxidative damage

O=C1CC[C@@]2(O)[C@H]3Cc4ccc(O)c5c4[C@@]2(CCN3CC2CC2)[C@H]1O5 [Naltrexone]
capacity for reversing oxidative damage (lipid peroxidation changes) (CD4 T cells): reversing oxidative damage

CC(=O)N[C@@H](CS)C(=O)O [NAC, N-acetylcysteine]
proportion of proliferating T cells, HC and ME-CFS PBMCs (FIG. 15) [1]: no difference or decrease | effect in reducing T cell hyperproliferation in ME/CFS donors ([1]; 5 days post stimulation): did not have any effect | reduction in T cell proliferation upon treatment, male ME/CFS [1]: did not observe any reduction | proportion of proliferating CD4 T cells upon stimulation [1]: 54.3% | capacity for reversing oxidative damage (lipid peroxidation changes) (CD4 T cells): reversing oxidative damage

Clc1cccc(CN=C2Nc3ccccc3NC23CCNCC3)c1 [liproxstatin-1]
proportion of proliferating T cells, HC and ME-CFS PBMCs (FIG. 15) [1]: selectively lowers proliferation in ME-CFS and not the HC donors | effect in lowering T cell proliferation in LC female donors ([1]; 5 days post stimulation): did not show a statistically significant effect | effect in reducing T cell hyperproliferation in ME/CFS donors ([1]; 5 days post stimulation): did not show a statistically significant effect | reduction in T cell proliferation upon treatment, male ME/CFS [1]: did not observe any reduction | proportion of proliferating CD4 T cells upon stimulation [1]: 64.5% | capacity for reversing oxidative damage (lipid peroxidation changes) (CD4 T cells): reversing oxidative damage

NC(=O)c1ccc[n+]([C@@H]2O[C@H](COP(=O)([O-])O)[C@@H](O)[C@H]2O)c1 [nicotinamide mononucleotide]
capacity for reversing oxidative damage (lipid peroxidation changes) (CD4 T cells): reversing oxidative damage

COc1cc2c(c(OC)c1OC)-c1ccc(OC)c(=O)cc1[C@@H](NC(C)=O)CC2 [Colchicine]
capacity for reversing oxidative damage (lipid peroxidation changes) (CD4 T cells): reversing oxidative damage

O=C1CCc2ccc(OCCCCN3CCN(c4cccc(Cl)c4Cl)CC3)cc2N1 [Abilify]
capacity for reversing oxidative damage (lipid peroxidation changes) (CD4 T cells): reversing oxidative damage

CN(C)C(=N)N=C(N)N [metformin]
effect on T cell proliferation in healthy controls ([1]; HC donors, 5 days post stimulation, metformin CD4 p=1, CD8 p=0.69): no effect; also recorded: does not alter proliferation | average reduction of CD4 T cell proliferation ([1]; LC donor PBMCs, metformin treatment (10 μM, FIG. 16B), p=0.31): 5.2% | average reduction of CD8 T cell proliferation ([1]; LC donor PBMCs, metformin treatment (10 μM, FIG. 16B), p=0.42): 7.6% | effect in lowering T cell proliferation in LC female donors ([1]; 5 days post stimulation): smaller and non-statistically significant effect | effect in reducing T cell hyperproliferation in ME/CFS donors ([1]; 5 days post stimulation): statistically significant effect in reducing CD4 T cell hyperproliferation; also recorded: statistically significant reduction | reduction in T cell proliferation upon treatment, male ME/CFS [1]: did not observe any reduction | proportion of proliferating CD4 T cells upon stimulation [1]: 53.2% | capacity for reversing oxidative damage (lipid peroxidation changes) (CD4 T cells): reversing oxidative damage | reduction of Long COVID incidence (patients): 41%
